Results taken from US20030049666A1, “Tissue culture assay for measuring drug induced translational recoding at premature stop codons and frameshift mutations” (University of Utah, priority 2001, published 2003).

Key:
[1] = tested on: stop codons UGA N, UAG N, and UAA N; experiment: dual luciferase (p2luc) stop codon readthrough assay in HEK293 cells; type: cell-based, human; settings: for concentration at which maximal levels of stop codon readthrough were observed: aminoglycoside in growth media for 24 hours; for readthrough of UAA A stop codon: UAA A construct, tissue culture (HEK293)
From the text: The p2luc dual luciferase reporter plasmid system, as described in U.S. Pat. No. 6,143,502, was used to measure the effect of aminoglycosides on stop codon readthrough in tissue culture cells. In this system, the renilla (sea pansy) luciferase and firefly luciferase reporter coding sequences are located on either side of a stop codon (FIG. 1). Stop codon and control constructs (containing a sense codon in place of the stop codon) are transfected in parallel in tissue culture cells. Expression of the upstream renilla luciferase gene provides a way to normalize for differences in transfection efficiencies, translation initiation, and mRNA levels between transfected cultures. […] M. R. Culbertson, RNA surveillance. Unforeseen consequences for gene expression, inherited generic disorders and cancer, 15 Trends Genet. 74-80 (1999). The ability of the dual reporter system to control for differences in mRNA levels between normal and nonsense-containing sequences provides a distinct advantage compared with single reporter or direct protein analysis. After normalization, the differences in downstream firefly luciferase activities between cultures transfected with the stop codon and control sense codon constructs reflect the frequency of stop codon readthrough.
(§1) The stop codons of SEQ ID NO: 1 through SEQ ID NO: 12 and SEQ ID NO: 25 were cloned between the two luciferase genes of p2luc, and control reporter plasmids (SEQ ID NO: 13-24) were produced by changing the first nucleotide of the stop codon to a C. More particularly, complimentary oligonucleotides corresponding to the sequences SEQ ID NO: 1 through SEQ ID NO: 25 were synthesized on an Applied Biosystems model 380C synthesizer (Foster City, Calif.) such that when annealed, they would have SalI- and BamHI-compatible ends. The oligonucleotides were ligated in SalI- and BamHI-digested p2luc vector according to methods well known in the art and transformed to Escherichia coli strain SU1675. DNA sequences were verified by autothermocycler sequencing, and plasmids were purified using the Qiagen Midiprep Kit (Valencia, Calif.) according to the manufacturer's specifications.
The oligonucleotides corresponding to SEQ ID NO: 1 through SEQ ID NO: 12 were identical except for nucleotides 13-16, which contained in-frame stop codons followed by a C, T, A, or G nucleotide. The oligonucleotides corresponding to SEQ ID NO: 13 through SEQ ID NO: 24 were the respective controls, which were identical to the oligonucleotides corresponding to SEQ ID NO: 1 through SEQ ID NO: 12 except the first nucleotide of the stop codon was replaced with a C nucleotide, thus changing the stop codon to a sense codon. The oligonucleotide corresponding to SEQ ID NO: 25 comprises the sequence surrounding the mdx mouse dystrophin mutation.
Translational readthrough of the stop codons of oligonucleotides corresponding to SEQ ID NO: 1 through SEQ ID NO: 12 was determined in a human embryonic kidney cell line (HEK293, e.g., ATCC CRL-1573) grown in the presence of varying amounts of G-418, gentamicin, and paromomycin, which have been particularly effective in inducing stop codon readthrough in yeast. A. Singh et al., Phenotypic suppression and misreading Saccharomyces cerevisiae, 277 Nature 146-148 (1979); E. Palmer et al., Phenotypic suppression of nonsense mutants in yeast by aminoglycoside antibiotics, 277 Nature 148-150 (1979). HEK293 cells were maintained as monolayer cultures growing in Dulbecco's Modified Eagle Medium with 1,000 mg/L of D-glucose, L-glutamine, pyridoxine hydrochloride, and 110 mg/L of sodium pyruvate supplemented with 10% fetal bovine serum and 50 units/ml penicillin/50 µg/ml streptomycin. All cells were incubated at 37° C. in an atmosphere of 5% CO2. All media, penicillin, and streptomycin were obtained from LifeTechnologies (Rockville, Md.); aminoglycosides were purchased from Sigma (St Louis, Mo.); and all sera were obtained from HyClone (Logan, Utah). […]

overall translation = experiment: inhibition of translation monitored by reduction in renilla luciferase activity in control transfections; type: cell-based, human; settings: highest concentration tested, HEK293 control transfections
Method: Transfections were performed using lipofectamine reagent (LifeTechnologies). HEK293 cells (0.15×10^5)were plated in 0.34-cm^2 wells and grown for 24 to 48 hours according to methods well known in the art. All cells were transfected with 0.3 μl of lipofectin and 0.075 μg of plasmid DNA for 15 hours, in serum-free media. Fresh media with serum and varying levels of aminoglycosides (Sigma) were then added, and incubation continued for 24 hours.
(§2) Cells were lysed using passive lysis buffer (Promega, Madison, Wis., and both renilla and firefly luciferase activities were determined using the dual luciferase reporter assay (Promega) on a Dynatech MLX Microtiter Plate Luminometer (Burlington, Mass.). For all reactions, light emission was measured for 2 to 12 seconds after 100μl of luminescence substrate was injected. Stop codon readthrough was calculated by comparing the ratio of firefly to renilla luciferase activity in cultures transfected with p2luc stop codon constructs and compared with ratios obtained from cultures transfected with p2luc control constructs.
A significant difference in stop codon readthrough induced by the aminoglycosides was observed between UGA, UAG, and UAA. […] The nucleotide in the fourth position immediately after the stop codon also contributed to the frequency of stop codon readthrough. This effect is particularly obvious for UGA N, where N=C>U>A≧G in order of most to least stop codon readthrough. […] Inhibition of translation was monitored by examining the reduction in renilla luciferase activity in control transfections.

[2] = tested on: cystic fibrosis transmembrane conductance regulator (CFTR) protein; settings: bronchial cell line carrying a nonsense mutation in the CFTR gene; cited from earlier work
dystrophin = settings: cited from earlier work
[3] = tested on: mdx premature stop codon / UGA C control; experiment: dual luciferase stop codon readthrough assay in mouse myoblast C2C12 cell line; type: cell-based
From the text: as §1, with “DNA sequences were verified by autothermocycler sequencing, and plasmids were purified using the Qiagen Midiprep Kit (Valencia, Calif.) according to the manufacturer's specifications.” left out
as §2, with “constructs. […]” for “constructs.”

Compound	stop codon readthrough on a mass basis, comparison of the three aminoglycosides ([1]; HEK293 cells)	concentration at which maximal levels of stop codon readthrough were observed ([1]; HEK293 cells)	readthrough of UAA A stop codon [1]	reduction in overall translation (overall translation)	expression of CFTR protein [2]	effect on premature stop codon in the dystrophin gene of the mdx mouse (dystrophin)	full-length dystrophin protein expressed on aminoglycoside treatment (dystrophin; mdx mouse)	gentamicin-induced readthrough of mdx sequence in C2C12 cells compared with UAA A construct in HEK293 cells [3]
CN[C@@H]1[C@@H](O)[C@@H](O[C@@H]2[C@@H](O)[C@H](O[C@H]3O[C@H]([C@@H](C)O)[C@@H](O)[C@H](O)[C@H]3N)[C@@H](N)C[C@H]2N)OC[C@]1(C)O [G-418]	induced the most readthrough on a mass basis	0.4 mg/mL	approximately 1%	~50%	restore the expression	–	–	–
NC[C@@H]1O[C@H](O[C@H]2[C@@H](O)[C@H](O[C@@H]3[C@@H](O)[C@H](N)C[C@H](N)[C@H]3O[C@H]3O[C@H](CO)[C@@H](O)[C@H](O)[C@H]3N)O[C@@H]2CO)[C@H](N)[C@@H](O)[C@@H]1O [paromomycin]	–	2 mg/mL	approximately 1%	little effect on translation	–	–	–	–
gentamicin	–	–	approximately 1%	~20%	restore the expression	can partially reverse the effects of a premature stop codon	10 to 20%	No increase
